Values quoted from earlier work in patent US10155776B2, “Method for selective detection and estimation of histidine and cystein” (Council of Scientific and Industrial Research, priority 2014, dated 2018).

Row | pKa value of the thiol group in the side chain | Structure (SMILES)
1 | 9.20 | N[C@@H](CCC(=O)N[C@@H](CS)C(=O)NCC(=O)O)C(=O)O [glutathione]
2 | 8.87 | N[C@@H](CCS)C(=O)O [homocysteine]
